Reference: patent US20230000869A1, “NOVEL ALK2 INHIBITORS AND METHODS FOR INHIBITING BMP SIGNALING” (The Brigham and Women's Hospital, Inc., priority 2017, published 2023)

Tests used:
ALK2 = biological target: T1, ALK2 (Mus musculus, UniProt P37172); experiment: Luciferase reporter gene assay for ALK2 activity (C2C12 BRE-Luc SMAD1/5/8 reporter, BMP6 agonist); assay type: cell-based; details: BMP6 50 ng/mL
T1 construct: endogenous in cells; host or cells: C2C12-BRE (BRE-Luc reporter line, G418 selection)
T1 sequence (P37172 21-509): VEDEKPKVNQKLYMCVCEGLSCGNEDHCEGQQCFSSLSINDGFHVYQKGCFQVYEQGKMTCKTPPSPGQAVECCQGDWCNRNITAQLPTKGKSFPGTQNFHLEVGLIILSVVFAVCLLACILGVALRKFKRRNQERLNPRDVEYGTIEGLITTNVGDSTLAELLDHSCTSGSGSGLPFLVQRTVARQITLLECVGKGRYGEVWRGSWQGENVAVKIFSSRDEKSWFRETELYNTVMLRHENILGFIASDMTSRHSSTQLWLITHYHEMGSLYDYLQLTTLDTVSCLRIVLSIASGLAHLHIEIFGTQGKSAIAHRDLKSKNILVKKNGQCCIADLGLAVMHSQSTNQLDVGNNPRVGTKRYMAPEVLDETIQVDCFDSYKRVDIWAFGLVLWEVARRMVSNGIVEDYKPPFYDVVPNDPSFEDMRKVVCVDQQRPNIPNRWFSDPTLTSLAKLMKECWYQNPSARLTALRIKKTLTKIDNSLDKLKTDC
Protocol: (§1) All cell lines were cultured in DMEM, supplemented with […] and 1% Pen/Strep. All media reagents were obtained from Gibco. BMP6, BMP9, and TGFβ were obtained from R&D Systems. C2C12-BRE and HEK293T-SBE were kept in selection with 400 ug/mL G418 from Invivogen.
(§2) In this reporter gene cell based ALK2 and TGFβ assay, the C2C12 cell line was employed for the measurement of ALK2 activity, using a BRE-Luc SMAD1/5/8 reporter and BMP6 as the agonist. The HEK293T cell line was employed to measure TGFβ activity, using a SBE-Luc SMAD2/3 reporter and TGFβ as the agonist. Luciferase reporter assays were read using Promega Steady-Glo Luciferase Assay System.
(§3) Cells were plated in 96 well white clear bottom assay plates at 10 k cells/well for C2C12-BRE, 15 k cells/well for HEK293-SBE in DMEM containing 2% FBS 1% P/S. Cells were given a minimum of 4 hours in incubator at 37° C./5% CO2 to adhere prior to further treatment. Compounds were diluted in DMSO to a 10-point dilution curve and added to the plate to reach the following final concentrations: 10000, 3000, 1000, 300, 100, and 30 nM in the HEK293-SBE assay and 1000, 300, 100, 30, 10, 3, 1, 0.3 nM in the C2C12-BRE assay. Negative and positive control wells received 2 μL DMSO as vehicle treatment. Plates were returned to incubator for 45 minutes and then BMP6 and TGFB were added to a final concentration of 50 ng/mL and 5 ng/mL, respectively. Plates were returned to the incubator and left overnight. After a minimum of 18 hours post BMP6/TGFβ addition, the plates were read using Promega Steady-Glo Luciferase Assay System. A 1:1 mixture of prepared steady-glo and phenol free DMEM was prepared, and 50 μL/well was added to the assay plates whose media had been flicked off. Plates were given 10 minutes post steady-glo addition before luminescence was read on a Spectramax M5e microplate reader. Negative control wells were averaged and subtracted from all other wells on the plate. Inhibition was calculated as the percent of signal loss compared to the averaged positive control wells.

TGFβ = experiment: Luciferase reporter gene assay for TGFβ activity (HEK293T SBE-Luc SMAD2/3 reporter, TGFβ agonist); assay type: cell-based; details: Homo sapiens, HEK-293T, TGFβ 5 ng/mL
Protocol: as §1, §2, §3

SMILES | IC50 (ALK2) [nM] | IC50 (TGFβ) [nM]
NC(=O)c1cccc2c(-c3cnn4cc(N5CCN(C6CCNCC6)CC5)cnc34)cccc12 [Compound 4] | > 3000 | > 3000
NC(=O)c1ccc(-c2cnn3cc(N4CCC(N5CCOCC5)CC4)cnc23)c2ccccc12 [Compound 12] | 87 | 458
CN1CCN(C2CCN(c3cnc4c(-c5cn[nH]c5)cnn4c3)CC2)CC1 [Compound 14] | 186 | > 3000
COc1cc2nccc(-c3cnn4cc(N5CCC(N6CCN(C)CC6)CC5)cnc34)c2cc1OC [Compound 17] | 681 | 271
Cc1cc(-c2cnn3cc(N4CCN(CCN5CCOCC5)CC4)cnc23)c2ccccc2n1 [Compound 19] | 113 | 64
Cc1cc(-c2cnn3cc(N4CCN(C5CCOCC5)CC4)cnc23)c2ccccc2n1 [Compound 22] | 261 | 86
Cc1cc(-c2cnn3cc(N4CCN(C5CCNCC5)CC4)cnc23)c2ccccc2n1 [Compound 23] | 145 | 88
CC(=O)N1CCC(N2CCN(c3cnc4c(-c5cc(C)nc6ccccc56)cnn4c3)CC2)CC1 [Compound 24] | 223 | 56
CN1CCN(C2CCN(c3cnc4c(-c5cnn6ccccc56)cnn4c3)CC2)CC1 [Compound 26] | 334 | 118
COc1cc2c(-c3cnn4cc(N5CCC(N6CCN(C)CC6)CC5)cnc34)ccnc2cc1C [Compound 29] | 83 | 384
Cc1cc(-c2cnn3cc(N4CCN(C5(C)CCNCC5)CC4)cnc23)c2ccccc2n1 [Compound 33] | 94 | 37
CCN1CCN(C2CCN(c3cnc4c(-c5ccnc6cc(F)c(OC)cc56)cnn4c3)CC2)CC1 [Compound 40] | 114 | 327
COc1cc2c(-c3cnn4cc(N5CCC(N6CCN(C)C(C)C6)CC5)cnc34)ccnc2cc1F (stereo not shown) [Compound 41] | 236 | 1230
COc1cc2c(-c3cnn4cc(N5CCC(N6CC[N+](C)([O-])CC6)CC5)cnc34)ccnc2cc1F [Compound 43] | 631 | 1920
COc1cc2c(-c3cnn4cc(N5CCC(N6CC[N+](C)(C)CC6)CC5)cnc34)ccnc2cc1F [Compound 44] | > 3000 | 210
COc1cc2c(-c3cnn4cc(N5CCC(N6CCS(=O)(=O)CC6)CC5)cnc34)ccnc2cc1F [Compound 46] | 108 | 454
COc1cc2c(-c3cnn4cc(N5CCC(N6CC7CCC(C6)N7)CC5)cnc34)ccnc2cc1F [Compound 52] | 29 | 358
COc1cc2c(-c3cnn4cc(N5CCC(N6CC7CCC(C6)N7C)CC5)cnc34)ccnc2cc1F [Compound 53] | 9 | 198
COc1cc2c(-c3cnn4cc(N5CCC(C)(N6CCN(C)CC6)CC5)cnc34)ccnc2cc1F [Compound 57] | 207 | > 1000
COc1cc2c(-c3cnn4cc(N5CCC(N6CCN(C)CC6C)CC5)cnc34)ccnc2cc1F (stereo not shown) [Compound 58, 4-[6-[4-(2,4-dimethylpiperazin-1-yl)-1-piperidyl]pyrazolo[1,5-a]pyrimidin-3-yl]-7-fluoro-6-methoxy-quinoline] | 377 | 970
COc1cc2c(-c3cnn4cc(N5CCC(N6CCN(C)CC6)C(C)C5)cnc34)ccnc2cc1F (stereo not shown) [Compound 61] | > 1000 | > 3000
Cc1cc(-c2cnn3cc(N4CCC(N5CCCN(C)CC5)CC4)cnc23)c2ccccc2n1 [Compound 62] | 90 | 37
CN1CCN(C2CCN(c3cnc4c(-c5cccc(S(C)(=O)=O)c5)cnn4c3)CC2)CC1 [Compound 63] | 977 | 6830
CC(=O)N1CCC(N2CCN(c3cnc4c(-c5ccnc6ccccc56)cnn4c3)CC2)CC1 [Compound 81] | > 3000 | > 3000

Continued by falling IC50 (ALK2), values first:

IC50 (ALK2) [nM] | IC50 (TGFβ) [nM] | SMILES
76 | 483 | COc1cc2c(-c3cnn4cc(N5CCC(N6CCN(C)CC6)C(F)C5)cnc34)ccnc2cc1F (stereo not shown) [Compound 47]
72 | 248 | COc1cc2c(-c3cnn4cc(N5CCC(N6CCN(C)CC6)CC5)cnc34)ccnc2cc1Cl [Compound 28]
71 | 539 | COc1cc2c(-c3cnn4cc(N5CCC(N6C[C@H]7C[C@@H]6CN7)CC5)cnc34)ccnc2cc1F [Compound 54]
60 | 410 | COc1cc2c(-c3cnn4cc(N5CCC(N6CCC(C)(N)CC6)CC5)cnc34)ccnc2cc1F [Compound 51]
56 | 261 | NC(=O)c1cccc2c(-c3cnn4cc(N5CCC(N6CCOCC6)CC5)cnc34)cccc12 [Compound 13]
50 | 914 | COc1cc2c(-c3cnn4cc(N5CCC(N6CCN(C)CC6)C5)cnc34)ccnc2cc1F (stereo not shown) [Compound 48]
42 | > 3000 | COc1ccc2nccc(-c3cnn4cc(N5CCC(N6CCN(C)CC6)CC5)cnc34)c2n1 [Compound 60, 2-methoxy-8-[6-[4-(4-methylpiperazin-1-yl)-1-piperidyl]pyrazolo[1,5-a]pyrimidin-3-yl]-1,5-naphthyridine]
41 | 76 | CN1CCN(C2CCN(c3cnc4c(-c5cccc6c(C(N)=O)cccc56)cnn4c3)CC2)CC1 [Compound 10]
37 | 120 | COc1ccc2nccc(-c3cnn4cc(N5CCC(N6CCOCC6)CC5)cnc34)c2c1 [Compound 30]
36 | 23 | CN1CCN(C2CCN(c3cnc4c(-c5ccc(C(N)=O)c6ccccc56)cnn4c3)CC2)CC1 [Compound 9]
29 | 176 | CN1CCN(C2CCN(c3cnc4c(-c5ccnc6cc7c(cc56)OCO7)cnn4c3)CC2)CC1 [Compound 18]
28 | > 3000 | CN1CCN(C2CCN(c3cnc4c(-c5cccc(P(C)(C)=O)c5)cnn4c3)CC2)CC1 [Compound 64]
27 | 1280 | CCOc1ccc2nccc(-c3cnn4cc(N5CCC(N6CCN(C)CC6)CC5)cnc34)c2c1 [Compound 21]
25 | 37 | Cn1cc(-c2cnn3cc(N4CCC(N5CCOCC5)CC4)cnc23)c2ccccc2c1=O [Compound 32]
24 | 376 | [2H]C([2H])([2H])N1CCN(C2CCN(c3cnc4c(-c5ccnc6cc(F)c(OC)cc56)cnn4c3)CC2)CC1 [Compound 45]
13 | < 1 | NC(=O)c1ccc(-c2cnn3cc(N4CCN(C5CCNCC5)CC4)cnc23)c2ccccc12 [Compound 3]
11 | 69 | COc1cc2c(-c3cnn4cc(N5CCC(N6CCNCC6)CC5)cnc34)ccnc2cc1F [Compound 39, 7-fluoro-6-methoxy-4-[6-(4-piperazin-1-yl-1-piperidyl)pyrazolo[1,5-a]pyrimidin-3-yl]quinoline]
11 | 631 | COc1cc2c(-c3cnn4cc(N5CC(N6CCN(C)CC6)C5)cnc34)ccnc2cc1F [Compound 49]
9 | 59 | COc1cc2c(-c3cnn4cc(N5CCC(N6CCCN(C)CC6)CC5)cnc34)ccnc2cc1F [Compound 42]
9 | 268 | COc1cc2c(-c3cnn4cc(N5CCC(N6C[C@H]7C[C@@H]6CN7C)CC5)cnc34)ccnc2cc1F [Compound 55]
8 | 20 | COc1cc2c(-c3cnn4cc(N5CCC(N6CCOCC6)CC5)cnc34)ccnc2cc1F [Compound 16]
8 | 218 | COc1ccc2nccc(-c3cnn4cc(N5CCC(N6CCN(C)CC6)CC5)cnc34)c2c1 [Compound 20]
7 | 10 | Cc1cc(-c2cnn3cc(N4CCN(c5ccncc5)CC4)cnc23)c2ccccc2n1 [Compound 27]
